Experimental findings from PubChem BioAssay (NCI) are described below.

SMILES strings stand for the structures.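 1) Cells in 96-well plates. 2) Compound, 48 h, 5 concentrations. 3) Linear interpolation between surrounding doses. 4) Unreached endpoint = highest concentration. The concentration for 50% growth inhibition is given as GI50. At the TGI there is no net growth.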

Test systems include SK-MEL-5 melanoma; A498 renal; OVCAR-4 ovarian; DU-145 prostate; SK-MEL-28 melanoma; HOP-62 NSCLC; SW-620 colon; RXF 393 renal; 786-0 renal; M14 melanoma; K-562 leukemia.
Common to all, as to experiment: growth of human tumour cells (NCI), 48 h

In the case of `CCCCCCCCCCCCCC[n+]1ccc2c(C)c3c(c(C)c2c1)c1cc(O)ccc1n3CC`, the GI50 in the assay with SK-MEL-5 melanoma is 0.258 µM; in the assay on A498 renal it was 0.327 µM; in the assay on OVCAR-4 ovarian it was 0.272 µM; in the assay with DU-145 prostate, 0.381 µM; in the assay with SK-MEL-28 melanoma, 0.496 µM; with HOP-62 NSCLC it was 0.408 µM. Also, the TGI in the assay on SK-MEL-5 melanoma came to 0.724 µM; in the assay on A498 renal, 1.27 µM; in the assay on OVCAR-4 ovarian, 1.07 µM; with DU-145 prostate it was 1.63 µM; in the assay on SK-MEL-28 melanoma, 1.73 µM; in the assay with HOP-62 NSCLC, 1.94 µM.

For `COCOc1c(C(O[Si](C)(C)C(C)(C)C)c2cnc(Sc3ccccc3)n2C)ccc(OC)c1OC` (stereo not drawn), the TGI in the assay with SK-MEL-5 melanoma was 3.21 µM; with SW-620 colon it was 3.8 µM; in the assay with OVCAR-4 ovarian, 16.2 µM; in the assay with RXF 393 renal, 2.71 µM; with DU-145 prostate, above 100 µM; in the assay with SK-MEL-28 melanoma it was 4.18 µM. The TGI with HOP-62 NSCLC is 3.61 µM; with 786-0 renal, 4.41 µM.

Turning to `O=c1[nH]c(Nc2cc(Cl)cc(Cl)c2)nc2nc[nH]c12`, the TGI in the assay with SK-MEL-5 melanoma, in the assay with M14 melanoma, in the assay on K-562 leukemia, in the assay on SW-620 colon, in the assay on OVCAR-4 ovarian and in the assay with RXF 393 renal was above 75 µM each time. In addition, the TGI in the assay with DU-145 prostate, in the assay on HOP-62 NSCLC and in the assay on 786-0 renal was above 75 µM each time.

With `O=C(O)c1cn2c3c(cc(N4CCN(CCO)CC4)cc3c1=O)SCC2`, the TGI in the assay with SK-MEL-5 melanoma, with A498 renal, in the assay on K-562 leukemia, in the assay with SW-620 colon, in the assay on OVCAR-4 ovarian and with RXF 393 renal was above 100 µM each time. Moreover, the TGI in the assay with SK-MEL-28 melanoma and with HOP-62 NSCLC was above 100 µM throughout.

Turning to `O=C1CCC(=O)N1n1c(Cc2ccc(Cl)cc2)n[nH]c1=O`, the TGI in the assay on SK-MEL-5 melanoma, in the assay on M14 melanoma, in the assay on A498 renal, with K-562 leukemia, in the assay on SW-620 colon and with OVCAR-4 ovarian was above 100 µM each time. For the same compound, the TGI in the assay on DU-145 prostate, in the assay on SK-MEL-28 melanoma and in the assay on 786-0 renal was above 100 µM in each case.

As to `CCCCNC(=S)Nc1nc(C(=O)NNC(=S)NC2CCCCC2)cs1`, the TGI in the assay with SK-MEL-5 melanoma, with M14 melanoma, with A498 renal, in the assay with K-562 leukemia, with SW-620 colon and in the assay on OVCAR-4 ovarian was above 100 µM in each case. The TGI in the assay with DU-145 prostate, in the assay with HOP-62 NSCLC and in the assay on 786-0 renal was above 100 µM each time.

On to `O=C(/C=C/c1ccc(O)c(O)c1)c1cc(O)cc(O)c1`, for which the TGI with SK-MEL-5 melanoma is above 100 µM; with M14 melanoma it was 26.9 µM; with A498 renal, 33.4 µM; in the assay on OVCAR-4 ovarian, 22.2 µM; in the assay with RXF 393 renal, 22.8 µM; in the assay with DU-145 prostate, 44.3 µM. For the same compound, the values for the TGI in the assay with SK-MEL-28 melanoma, in the assay with HOP-62 NSCLC and in the assay on 786-0 renal were 31.2 µM, 36.6 µM and 26.6 µM, respectively.

For `O=C1CCCC/C1=C\c1ccc(Br)cc1`, the TGI in the assay with SK-MEL-5 melanoma is 44.5 µM; with M14 melanoma, 26.1 µM; with K-562 leukemia, 31.7 µM; with SW-620 colon it was above 100 µM; with OVCAR-4 ovarian, 46.7 µM; in the assay with DU-145 prostate, above 100 µM. The TGI in the assay with SK-MEL-28 melanoma stood at 31.6 µM; with HOP-62 NSCLC, 42.8 µM; in the assay on 786-0 renal it was 30.9 µM.

Turning to `CCOC(=O)C1OC(C2(C)OC3(OC4(C=CC3O)OC(C(C)C(=O)C(C)C(O)C(C)CC(C)c3c(Cl)cc(C)c(O)c3C(=O)O)C(C)CC4C)C(C)C2OC)CC1O` (stereo not drawn), the TGI was found to be 5.59 µM in the assay on SK-MEL-5 melanoma; 6.38 µM with M14 melanoma; 2.51 µM with A498 renal; 5.16 µM with K-562 leukemia; 10.5 µM with SW-620 colon; 4.53 µM in the assay on OVCAR-4 ovarian. For the same compound, the TGI with DU-145 prostate was found to be 5.93 µM; in the assay with SK-MEL-28 melanoma, 1.02 µM; with HOP-62 NSCLC it was 0.483 µM; in the assay with 786-0 renal, 4.47 µM.

As to `Nc1nc(N)c2ncn(Cc3ccccc3CCl)c2n1`, the TGI with SK-MEL-5 melanoma, in the assay with M14 melanoma, in the assay with A498 renal, with K-562 leukemia, with SW-620 colon and in the assay on OVCAR-4 ovarian was above 100 µM in each case. Further, the TGI with DU-145 prostate, with SK-MEL-28 melanoma, in the assay with HOP-62 NSCLC and in the assay with 786-0 renal was above 100 µM in each case.

Take `COC(=O)C1CCC(=O)N1C(c1ccc(OC)cc1)c1ccc(OC)cc1` (stereo not drawn): the TGI in the assay on SK-MEL-5 melanoma, in the assay on M14 melanoma, with A498 renal, with K-562 leukemia, in the assay on SW-620 colon and in the assay with OVCAR-4 ovarian was above 100 µM in each case. Further, the TGI in the assay on DU-145 prostate, in the assay on SK-MEL-28 melanoma, with HOP-62 NSCLC and in the assay with 786-0 renal was above 100 µM throughout.

For `Cc1ccc(OC2CC(n3cnc4ncnc(Cl)c43)OC2Oc2ccc(C)cc2)cc1` (stereo not drawn), the TGI is 46.4 µM in the assay on SK-MEL-5 melanoma; 65.8 µM with M14 melanoma; above 100 µM in the assay with A498 renal; above 100 µM in the assay on SW-620 colon; above 100 µM in the assay with OVCAR-4 ovarian; 53.2 µM with DU-145 prostate. The results for the TGI with SK-MEL-28 melanoma, in the assay with HOP-62 NSCLC and with 786-0 renal were above 100 µM, 90.2 µM and above 100 µM, respectively.

Turning to `Cc1ccc(O)c(-c2cc(-c3cccc(Cl)c3)c(C#N)c(N)n2)c1`, the TGI in the assay with SK-MEL-5 melanoma came out at 29.2 µM; with M14 melanoma, 46.1 µM; in the assay on K-562 leukemia, 48.4 µM; with SW-620 colon, 40.8 µM; with OVCAR-4 ovarian it was 41.3 µM; with RXF 393 renal, 47.8 µM. The TGI was above 100 µM with DU-145 prostate, 48.2 µM in the assay with HOP-62 NSCLC and 46 µM with 786-0 renal.

Take `COc1cc(/C=C/C(=O)c2c(C)nc3ccccc3c2C)ccc1OCCCOc1cc2c(cc1OC)C(=O)N1CCC[C@H]1C=N2`: the GI50 was 0.0194 µM in the assay on A498 renal; 0.011 µM in the assay on K-562 leukemia; 0.0443 µM in the assay on OVCAR-4 ovarian; 0.0279 µM in the assay with DU-145 prostate; 0.0214 µM in the assay with SK-MEL-28 melanoma; 0.0303 µM with HOP-62 NSCLC. The TGI came out at 0.0419 µM in the assay on A498 renal; 0.0346 µM with K-562 leukemia; 31.5 µM with OVCAR-4 ovarian; 0.0802 µM in the assay with DU-145 prostate; 0.044 µM in the assay with SK-MEL-28 melanoma; 0.0609 µM in the assay on HOP-62 NSCLC.
